Results published in patent US20020102688A1, “Methods and products for the synthesis of oligosaccharide structures on glycoproteins, glycolipids, or as free molecules, and for the isolation of cloned genetic sequences that determine these structures” (The Regents of the University of Michigan, priority 1990, published 2002).

Legend:
[1] = molecular target: T1, agglutinin from Erythrina cristagalli (ECA) (Erythrina crista-galli, UniProt P83410); assay: Hapten inhibition of FITC-ECA binding to L cells (FACS); conditions: FITC-labeled ECA preincubated with hapten
T1 construct: purchased E-Y Labs (San Mateo, Calif.)
T1 sequence (P83410 1-239): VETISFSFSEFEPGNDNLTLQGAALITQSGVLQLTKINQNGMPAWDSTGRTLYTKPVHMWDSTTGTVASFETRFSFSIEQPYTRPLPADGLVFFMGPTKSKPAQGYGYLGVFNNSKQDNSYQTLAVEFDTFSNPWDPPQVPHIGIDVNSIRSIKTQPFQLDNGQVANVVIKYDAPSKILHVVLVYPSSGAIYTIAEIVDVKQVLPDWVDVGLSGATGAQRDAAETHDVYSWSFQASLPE
Protocol: These would represent potential acceptor molecules for a complementing human (α-1,2)fucosyltransferase activity and would allow the resulting surface-expressed Fucα(1,2)Gal linkages to be detected with anti-H antibody. The agglutinin from Erythrina cristagalli (ECA) was used for this analysis. […] L cells were stained with purified, FITC-labeled ECA, or with FITC-labeled ECA that had been preincubated with the hapten N-acetyllactosamine and were subjected to FACS analysis.

[2] = system: monoclonal anti-H antibody (BE2); assay: Hapten inhibition of BE2 anti-H antibody binding to mH1-12 cells; set-up: species or system mouse; conditions: antibody preincubated with hapten, 20 mM
Protocol: Immunofluoroscence was performed on cells plated on 8-well tissue culture chamber slides (Lab-Tek). Cells were plated at a density of 5×10^4/well 24 h prior to analysis. Anti-H and anti-A primary antibodies were diluted in PBS containing bovine serum albumin at 2 mg/ml, to a final concentration of 10 μg/ml. Cell-bound primary antibodies were detected with FITC-conjugated goat anti-mouse IgM, diluted to 40 μg/ml in PBS containing 2 mg/ml bovine serum albumin.
Hapten Inhibition—Plated cells were washed twice with PBS, and were incubated for 30 min at 4° C. with 100 μl of diluted anti-H antibody, or with 100 μl of diluted antibody containing different oligosaccharide haptens, each at a concentration of 20 mM. The chambers were then washed twice, and 100 μl of FITC-conjugated goat anti-mouse IgM was added. After 30 min at 4° C., the chambers were washed three times with PBS, and the cells were fixed at room temperature for 10 min in 3.7% formaldehyde in PBS. The cells were washed twice with PBS, the chambers were removed, and the slide was mounted in PBS containing 25% glycerol. Cells were examined by fluorescence microscopy using a Zeiss Axiophot photomicroscope equipped with fluorescence epiillumination.

Molecule | inhibition of ECA binding to L cells by hapten [1] | inhibition of BE2 anti-H antibody binding to mH1-12 cells by hapten [2]
CC(=O)N[C@H]1C(O)O[C@H](CO)[C@@H](O[C@@H]2O[C@H](CO)[C@H](O)[C@H](O)[C@H]2O)[C@@H]1O (some centres unmarked) [N-acetyllactosamine] | effectively inhibited | 
Fucα(1,2)Galβ(1,4)Glc [2-fucosyllactose] |  | inhibition of binding
